The record followed here is PubChem BioAssay (NCI).

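Step 1: Grow cells in 96-well plates. Step 2: Expose to compound for 48 hours at 5 concentrations. Step 3: Interpolate endpoints linearly; if unreached, use highest concentration. At the GI50, growth is halved. TGI marks complete inhibition of growth.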 A value given as a limit tells only on which side of the number the result lay.

Among the test systems are RXF 393 renal; CAKI-1 renal; SK-MEL-5 melanoma; ACHN renal; MDA-MB-435; COLO 205 colon; OVCAR-4 ovarian; CCRF-CEM leukemia; OVCAR-5 ovarian.
What all share (experiment): growth of human tumour cells (NCI), 48 h

`N#CC1=C(N)NC(=S)C(C#N)C12Nc1ccccc1S2` (stereo not drawn): the GI50 in the assay with RXF 393 renal is 27.7 µM; with CAKI-1 renal, 11 µM; with SK-MEL-5 melanoma, 12.8 µM; in the assay with ACHN renal, 9.82 µM; with MDA-MB-435, 17.2 µM; with COLO 205 colon, 25.5 µM. For the same compound, the TGI with RXF 393 renal was found to be 57.5 µM; with CAKI-1 renal, 35.1 µM; in the assay with SK-MEL-5 melanoma, 26.7 µM; with ACHN renal, 29.4 µM; with MDA-MB-435 it was 44.7 µM; in the assay with COLO 205 colon, 60.6 µM.

Consider `CC(=O)[O-].O=[N+]([O-])c1ccc([O-])c(C=NCCN=Cc2cc([N+](=O)[O-])ccc2[O-])c1.[Mn+3]`, for which the GI50 with RXF 393 renal was over 100 µM; with OVCAR-4 ovarian, over 100 µM; with SK-MEL-5 melanoma, over 100 µM; in the assay with ACHN renal, over 100 µM; with CCRF-CEM leukemia, 33.4 µM. The TGI in the assay on RXF 393 renal, in the assay with OVCAR-4 ovarian, in the assay on SK-MEL-5 melanoma, in the assay on ACHN renal and with CCRF-CEM leukemia was over 100 µM in each case.

`C=C(C[N+](C)(C)C)N/N=C/c1oc(-c2ccc(OC)c(OC)c2)c(-c2ccc(OC)c(OC)c2)c1[N+](=O)[O-]`: the TGI in the assay with RXF 393 renal is 30.1 µM; in the assay on CAKI-1 renal it was over 100 µM; in the assay on OVCAR-4 ovarian, 38 µM; in the assay with SK-MEL-5 melanoma it was 31.7 µM; with ACHN renal, 31.5 µM; with CCRF-CEM leukemia, 50.5 µM. Further, the TGI is 40.3 µM in the assay with OVCAR-5 ovarian and 33.6 µM in the assay with COLO 205 colon.

For the compound `COc1cc2c3c(c1OC)/C(=N/OS(=O)(=O)c1ccc(C)cc1)CC3N(S(=O)(=O)c1ccc(C)cc1)CC2` (stereo not drawn), the TGI with RXF 393 renal, with CAKI-1 renal, with OVCAR-4 ovarian, with SK-MEL-5 melanoma, in the assay with ACHN renal and with CCRF-CEM leukemia was over 100 µM throughout. In addition, the TGI in the assay on OVCAR-5 ovarian and with COLO 205 colon was over 100 µM each time.

Turning to `Cc1cc(N(CCC#N)CCC#N)ccc1/C=C/C(=O)Nc1ccccc1Cl`, the TGI with CAKI-1 renal, in the assay with OVCAR-4 ovarian, in the assay with SK-MEL-5 melanoma, with ACHN renal, in the assay with CCRF-CEM leukemia and in the assay with OVCAR-5 ovarian was over 100 µM each time. In the assay on COLO 205 colon, this compound came in with a TGI of over 100 µM.

As to `C=CCN(N=O)C(=O)ON1C(=O)CCC1=O`, the TGI in the assay with RXF 393 renal, with OVCAR-4 ovarian, with ACHN renal, in the assay with CCRF-CEM leukemia, in the assay on OVCAR-5 ovarian and with COLO 205 colon was over 100 µM in each case.

For the compound `COC(=O)C1=C(C(=O)OC)N(C(C)C)[C@H]2C(C(=O)OC)=C(C(=O)OC)N(C(C)C)[C@@H]12`, the TGI in the assay with RXF 393 renal, with CAKI-1 renal, with OVCAR-4 ovarian, in the assay with SK-MEL-5 melanoma, in the assay on ACHN renal and with CCRF-CEM leukemia was over 100 µM throughout. Besides, the TGI in the assay with OVCAR-5 ovarian and in the assay with COLO 205 colon was over 100 µM throughout.

Take `C1=CC=C2NCCSCCNC3=CC=CC=CC3=NCCSCCN=C2C=C1`: the TGI with CAKI-1 renal, with OVCAR-4 ovarian, in the assay on SK-MEL-5 melanoma, in the assay on ACHN renal, in the assay with CCRF-CEM leukemia and with OVCAR-5 ovarian was over 100 µM in each case. Besides, the TGI with COLO 205 colon is over 100 µM.

Regarding `COc1ccc2nc3cc(Cl)ccc3c(Nc3ccc(O)c(CN4CCCC4)c3)c2c1`, the GI50 with RXF 393 renal is 1.7 µM; in the assay with CAKI-1 renal it was 2.09 µM; in the assay on OVCAR-4 ovarian, 2.7 µM; in the assay with SK-MEL-5 melanoma it was 1.82 µM; with ACHN renal, 1.74 µM; in the assay on MDA-MB-435 it was 1.76 µM. The GI50 is 3.06 µM with CCRF-CEM leukemia, 2.89 µM in the assay with OVCAR-5 ovarian and 1.83 µM in the assay on COLO 205 colon. In addition, the TGI came to 3.17 µM with RXF 393 renal; 4.88 µM with CAKI-1 renal; 8.24 µM in the assay with OVCAR-4 ovarian; 3.24 µM in the assay with SK-MEL-5 melanoma; 3.18 µM in the assay with ACHN renal; 3.52 µM in the assay with MDA-MB-435. Moreover, the TGI is 14.6 µM with CCRF-CEM leukemia, 7.62 µM with OVCAR-5 ovarian and 3.48 µM in the assay on COLO 205 colon.

On to `O=C1Cc2ccccc2CCc2ccccc21`, for which the TGI with RXF 393 renal, in the assay with CAKI-1 renal, with OVCAR-4 ovarian, in the assay with SK-MEL-5 melanoma, in the assay with ACHN renal and in the assay with CCRF-CEM leukemia was over 100 µM in each case. Also, the TGI with OVCAR-5 ovarian and in the assay with COLO 205 colon was over 100 µM throughout.

In the case of `CC1(C)Oc2ccccc2N2O[C@@H]3C(=O)N(c4ccccc4)C(=O)[C@@H]3C21c1ccccc1` (stereo partly drawn), the TGI with RXF 393 renal was 60.8 µM; with CAKI-1 renal it was 60.8 µM; in the assay on OVCAR-4 ovarian it was 34.1 µM; with SK-MEL-5 melanoma it was 44.3 µM; in the assay with CCRF-CEM leukemia it was over 100 µM; with OVCAR-5 ovarian, over 100 µM. In the assay on COLO 205 colon, the TGI was over 100 µM.

For the compound `CCCCOP1(=O)C=CC(Cl)=C(C)C1` (stereo not drawn), the TGI in the assay on CAKI-1 renal is over 100 µM; in the assay with OVCAR-4 ovarian, 73.7 µM; in the assay with ACHN renal, 36.3 µM; in the assay on CCRF-CEM leukemia, 35 µM; with COLO 205 colon it was 97.7 µM.

For `O=c1ncccn1C1OC(CO)C(O)C1F` (stereo not drawn), the TGI with RXF 393 renal, in the assay with CAKI-1 renal, in the assay on OVCAR-4 ovarian, in the assay on SK-MEL-5 melanoma, in the assay with ACHN renal and in the assay with CCRF-CEM leukemia was over 100 µM throughout. Further, the TGI in the assay on OVCAR-5 ovarian and with COLO 205 colon was over 100 µM in each case. Also, the GI50 with CCRF-CEM leukemia is over 100 µM.

On to `CCOC(=O)c1cc(C(=O)O)c(=O)n2c1[nH]c1ccccc12`, for which the TGI with RXF 393 renal, in the assay with CAKI-1 renal, in the assay on OVCAR-4 ovarian, with SK-MEL-5 melanoma, with ACHN renal and in the assay on CCRF-CEM leukemia was over 100 µM throughout. Also, the TGI in the assay on COLO 205 colon was over 100 µM.

As for `CN1C=C(C(N)=O)C2CC(O)[C@@](NC(=O)CS(N)(=O)=O)(C(=O)O)C2C1` (stereo partly drawn), the TGI was 4.16 µM in the assay with RXF 393 renal; over 100 µM with CAKI-1 renal; 4.15 µM with OVCAR-4 ovarian; 15.7 µM in the assay on SK-MEL-5 melanoma; 97.3 µM with ACHN renal; over 100 µM in the assay on CCRF-CEM leukemia. Further, the TGI with OVCAR-5 ovarian was 6.8 µM; in the assay with COLO 205 colon it was 29.2 µM.
